Values joined by “and” are separate entries in the source; they are usually repeats but may differ in a detail not shown here. Equal entries are not always repeated. Where two headings read alike, the source gives them in different places. One block for each compound: values may come before it.
Legend:
T. gondii [1] = tested on: T. gondii; set-up: method as in PMID 17626366; conditions: cited from earlier work; for IC50: cell monolayers infected and then treated
C. parvum [2] = assay: C. parvum in vitro culture assay, intracellular stages in infected HCT-8 cells; format: cell-based, Cryptosporidium parvum IOWA isolate
Description: Growth of C. parvum in cell culture was performed as described previously. Briefly, purified C. parvum IOWA isolate oocysts were washed with phosphate-buffered saline (PBS, pH 7.4) to remove the storage buffer (2.5% w/v aqueous potassium dichromate) and resuspended in RPMI 1640 media supplemented with 0.75% sodium taurocholate and incubated for 30 min at 37 °C. The excystation mixture containing oocysts, oocyst shells and free sporozoites was diluted with RPMI 1640 with 10% fetal bovine serum (FBS). Approximately 1 × 10^5 oocysts and sporozoites were dispensed per well in 24-well plates containing confluent HCT-8 cells. Host cells inoculated with the parasite mixture were incubated for 3 h and subsequently washed with PBS to remove free parasites (those that had not invaded host cells). PBS was replaced with fresh RPMI 1640 with 10% FBS with or without test compounds and the cultures were incubated for 48 h. In addition, RPMI 1640 with 10% FBS supplemented with DMSO (same concentration used with test compounds) was evaluated to determine the effect of inhibition or toxicity on cultures. Culture wells were washed with PBS, and then PBS was replaced by Bouin’s solution. After fixation of cultures, the Bouin solution was removed and decolorized with 70% ethanol, followed by 5 washes with PBS. Culture wells were labeled with an anti-C. parvum fluorescein-labeled monoclonal antibody (C3C3-FITC) and parasites were enumerated via quantitative fluorescent microscopy at 400× magnification using an Olympus IX73 microscope (Waltham, MA, USA). Twenty-four sequential, non-overlapping fields per well were captured as digital images, constituting a representative subsample of the entire well. The parasites were quantified using OpenCFU (https://sourceforge.net/projects/opencfu/, accessed on 4 October 2014) software based on the size of the fluorescing parasites and the parasite-specific fluorescent signal. Data were obtained from four well replicates, and each experiment was repeated at least twice. Dose–effect curves and the median effective concentration (EC50) of each compound alone or in combination was determined using CompuSyn (ComboSyn, Inc., Paramus, NJ, USA, ver. 2.1 for Microsoft Windows) computer software. The EC50 was defined as the concentration required for reducing the number of parasites by 50% compared with the untreated control. […]

C. parvum sporozoites = assay: SCFA treatment of live sporozoites before inoculation onto HCT-8 cells; format: cell-based, Cryptosporidium parvum; conditions: for inhibition of sporozoites: 45 min incubation with sporozoites prior to infection of host cell monolayers; for EC50: sporozoites incubated 45 min with SCFA, washed, then 48 h development on HCT-8 cells, read-out: EC50 for Sporozoite Stages
Description: Sporozoites were prepared according to You et al., 1998 [15]. Briefly, after excystation, the C. parvum oocysts and sporozoite mixture was filtered through a […] filter using a syringe and centrifuged, washed and counted. Isolated sporozoites were incubated with different SCFAs for 45 min, then washed several times to remove SCFAs before plating on cell monolayers. Sporozoites were then inoculated onto HCT-8 cells and incubated for 3 h. Monolayers were then washed, media was replaced and parasites were allowed to develop for 48 h, as described in the culture assay above. Cells were fixed and labeled and parasitic stages were quantitated as described above.

E. invadens = tested on: E. invadens; set-up: method as in PMID 15659070; conditions: incubated individually; cited from earlier work
HCT-8 cells = assay: Compound toxicity for host cell cultures (CellTiter 96 tetrazolium assay); format: cell-based, human
Description: (§1) Test compound toxicity for HCT-8 cell cultures was assessed using the CellTiter 96 Non-Radioactive Cell Proliferation/Cytotoxicity assay as recommended by the manufacturer (Promega Corporation, Madison, WI, USA).

Cryptosporidium = tested on: Cryptosporidium; set-up: method as in PMID 8917558; conditions: previously reported; cited from earlier work
[3] = Compound toxicity for host cell cultures (CellTiter 96 tetrazolium assay); format: cell-based, human; conditions: human; HDAC inhibitors; 48 h; read-out: Cytotoxicity Concentration (CC50) for HCT-8 Host Cells
Description: as §1

autophagy in HCT-8 cells = assay: Autophagy assay (autophagosome detection reagent); format: cell-based, human; conditions: 24 h
Description: In vitro assays were performed as described above. Briefly, HCT-8 cells were infected with C. parvum and/or treated with 1 mM butyrate for 24 h, after which the cells were analyzed for […]. Control wells (uninfected, untreated) were compared with treated wells and infected wells. An autophagy assay was used following the recommendation of the manufacturer (Sigma-Aldrich, St. Louis, MO, USA). The medium was removed from the wells and 100 µL of the proprietary autophagosome detection reagent was added directly to each well. The plate was then incubated for 45 min at 37 °C and 5% CO2. The detection reagent was then removed, and each well was washed 3 times with the provided wash buffer before measuring fluorescence (λex = 360/λem = 520 nm) with a microplate reader. The intensity of the fluorescence correlates directly with the amount of autophagy observed.

CpHDAC3 = conditions: recombinant protein; cited from earlier work
apoptosis in HCT-8 cells = assay: Apoptosis assay (Caspase-Glo 3/7); format: cell-based, human; conditions: 24 h
Description: In vitro assays were performed as described above. Briefly, HCT-8 cells were infected with C. parvum and/or treated with 1 mM butyrate for 24 h, after which the cells were analyzed for percent apoptosis. Control wells (uninfected, untreated) were compared with treated wells and infected wells. Apoptosis in HCT-8 cell cultures was measured using a commercially available assay (Promega Corporation, Madison, WI, USA). Caspase-Glo3/7 reagent was added directly to the assay wells.

[4] = tested on: cytokine production in HCT-8 cells; assay: Cytokine production, Luminex 48-plex, HCT-8 supernatants; format: cell-based, human; conditions: for majority of cytokines in the 48-plex assay (including IL-6 and TNF-α): 48 h treatment, alone or in combination with C. parvum infection
Description: For the cytokine assay, the in vitro infection assay was performed as described above. Supernatants from 24-well plates were collected and stored at –80 °C. Luminex multiplex assays were completed by Eve Technologies using the Human Cytokine discovery Array 48-plex Panel (Calgary, AB, Canada).

T. gondii [5] = tested on: T. gondii; set-up: method as in PMID 34339265; conditions: treatment of mice; cited from earlier work
C. parvum [6] = tested on: C. parvum; set-up: method as in PMID 24273180; conditions: cited from earlier work
C. parvum [7] = tested on: C. parvum; set-up: method as in PMID 24273180; conditions: cited from earlier work; remark: listed apart in the source
[8] = HCT-8 cells infected with C. parvum, 48 h treatment, read-out: EC50 for Intracellular Stages
[9] = Cryptosporidium parvum, HCT-8, 48 h, HCT-8 cells infected with C. parvum, 48 h treatment, read-out: EC50 for Intracellular Stages
[10] = C. parvum infected then 1 mM butyrate, 48 h, compared with butyrate alone or infection alone
[11] = HDAC inhibitors, infected HCT-8 cells, 48 h, read-out: EC50 of Intracellular Stages

Compound: O=C(O)CCCc1ccccc1 [4-phenylbuyrate]
- inhibition of T. gondii in vitro (T. gondii [1]): inhibit

- EC50 (C. parvum [2]; [8]): 4000 µM
- EC50 (C. parvum sporozoites): > 100000 µM
Compound: CC(=O)O [Acetate]
- inhibition of sporozoites (C. parvum sporozoites): no inhibition
- concentration range inhibiting encystment (E. invadens): 6 to 22 mM
- CC50 (HCT-8 cells): > 200000 µM

Compound: CCC(=O)CCCCC[C@@H]1NC(=O)[C@H]2CCCCN2C(=O)[C@H]([C@@H](C)CC)NC(=O)[C@H](Cc2cn(OC)c3ccccc23)NC1=O [Apicidin]
- EC50 (C. parvum [2]; Cryptosporidium parvum, HCT-8, 48 h, read-out: EC50 of Intracellular Stages, HDAC inhibitors, infected HCT-8 cells, 48 h): 0.02 µM
- EC50 (C. parvum [2]; read-out: EC50 of Intracellular Stages, HDAC inhibitors, infected HCT-8 cells, 48 h): 0.04 µM
- anti-cryptosporidial activity at concentration (Cryptosporidium): 30 ng/mL
- CC50 at 48 h [3]: 150 µM

Compound: CCCC(=O)O [Butyrate]
- autophagy (autophagy in HCT-8 cells; 1 mM alone, uninfected cells): no difference
- autophagy (autophagy in HCT-8 cells; cells infected with C. parvum and treated, 1 mM): significant decrease in autophagy
- EC50 (C. parvum [2]; [9]): 4000 to 10000 µM
- EC50 (C. parvum [2]; [8]): 3000 to 8000 µM
- IC50 (T. gondii [1]): 1000 to 5000 µM
- inhibition of T. gondii in vitro (T. gondii [1]): inhibit
- inhibition of sporozoites (C. parvum sporozoites): inhibited growth
- EC50 (C. parvum sporozoites; Cryptosporidium parvum): 2000 µM
- concentration range inhibiting encystment (E. invadens): 6 to 22 mM
- inhibition of CpHDAC3 (CpHDAC3): did not inhibit
- apoptosis (apoptosis in HCT-8 cells; 1.0 mM alone, compared to control, p < 0.05): significantly higher percentage of apoptosis
- apoptosis (apoptosis in HCT-8 cells; C. parvum infection plus treatment 3 h after infection, 1 mM): additional increase in apoptosis
- majority of cytokines in the 48-plex assay (including IL-6 and TNF-α) [4]: not significantly altered
- IL-1α [4, 10]: significant increase
- IL-8 [4, 10]: significant increase

Compound: COc1ccc(Cn2ccc3ccc(C(=O)NO)cc32)cc1 [PCI 34051]
- EC50 (C. parvum [2]; [11]): 0.001 µM and 0.001 to 0.007 µM
- toxicity (HCT-8 cells; below 200 nM): no toxicity
- majority of cytokines in the 48-plex assay (including IL-6 and TNF-α) [4]: did not increase cytokine expression
- majority of cytokines in the 48-plex assay (including IL-6 and TNF-α) ([4]; listed as PCI 34,051): not significantly altered

- EC50 (C. parvum [2]; [8]): 3000 to 4000 µM
- EC50 (C. parvum sporozoites): > 100000 µM
Compound: CCC(=O)O [Propionate]
- inhibition of sporozoites (C. parvum sporozoites): no inhibition
- concentration range inhibiting encystment (E. invadens): 6 to 22 mM

Compound: CC(/C=C/C(=O)NO)=C\[C@@H](C)C(=O)c1ccc(N(C)C)cc1 [Trichostatin A]
- EC50 (C. parvum [2]; [11]): 0.02 µM
- anti-cryptosporidial activity at concentration (Cryptosporidium): 30 ng/mL
- CC50 (HCT-8 cells; HDAC inhibitors, 48 h, read-out: Cytotoxicity Concentration (CC50) for HCT-8 Host Cells): > 200 µM

- EC50 (C. parvum [2]; [9]): 10000 µM
- EC50 (C. parvum sporozoites; Cryptosporidium parvum): > 100000 µM
Compound: CCCC(CCC)C(=O)O [Valproate, reference compound]
- IC50 (T. gondii [1]): 1000 to 5000 µM
- inhibition of T. gondii in vitro (T. gondii [1]): inhibit
- inhibition of sporozoites (C. parvum sporozoites): no inhibition
- number of T. gondii cysts in the brains of mice (T. gondii [5]): reduce the number of T. gondii cysts

Compound: O=C(CCCCCCC(=O)Nc1ccccc1)NO [vorinostat]
- efficacy in a mouse model (C. parvum [6]): efficacy
- in vitro activity (C. parvum [7]): in vitro activity
